“And” between values parts separate entries of the source, which are not always exact repeats. Equal values may be shown once. Read-outs that look alike come from different tables or passages of the source.
Assays:
[1] = tested on: LvCaP-3 human prostate cancer PDXs; assay: In vivo growth of LvCaP-3 PDX in castrate mice; set-up: species or system human xenograft in mice; settings: oral 10 mg/kg/d
[2] = tested on: thymus; assay: AHR agonist induced thymus regression in FVB male mice; assay type: in vivo; settings: for thymus weight: oral 10 mg/kg/d for 14 days, vehicle 72 +/− 3 (>70)
[3] = tested on: CWR22-RH human prostate cancer PDXs; assay: In vivo growth of CWR22-RH PDX in castrate NSG mice; set-up: species or system human xenograft in NSG mice
[4] = Serum pharmacokinetics after oral gavage in mice; assay type: in vivo
[5] = Water solubility; assay type: physicochemical
[6] = molecular target: T1, Human Aryl Hydrocarbon Receptor (AHR) (Homo sapiens, UniProt P35869); assay: Cell-based luciferase reporter gene assay driven by AHR-responsive promoter
T1 sequence (P35869 11-848): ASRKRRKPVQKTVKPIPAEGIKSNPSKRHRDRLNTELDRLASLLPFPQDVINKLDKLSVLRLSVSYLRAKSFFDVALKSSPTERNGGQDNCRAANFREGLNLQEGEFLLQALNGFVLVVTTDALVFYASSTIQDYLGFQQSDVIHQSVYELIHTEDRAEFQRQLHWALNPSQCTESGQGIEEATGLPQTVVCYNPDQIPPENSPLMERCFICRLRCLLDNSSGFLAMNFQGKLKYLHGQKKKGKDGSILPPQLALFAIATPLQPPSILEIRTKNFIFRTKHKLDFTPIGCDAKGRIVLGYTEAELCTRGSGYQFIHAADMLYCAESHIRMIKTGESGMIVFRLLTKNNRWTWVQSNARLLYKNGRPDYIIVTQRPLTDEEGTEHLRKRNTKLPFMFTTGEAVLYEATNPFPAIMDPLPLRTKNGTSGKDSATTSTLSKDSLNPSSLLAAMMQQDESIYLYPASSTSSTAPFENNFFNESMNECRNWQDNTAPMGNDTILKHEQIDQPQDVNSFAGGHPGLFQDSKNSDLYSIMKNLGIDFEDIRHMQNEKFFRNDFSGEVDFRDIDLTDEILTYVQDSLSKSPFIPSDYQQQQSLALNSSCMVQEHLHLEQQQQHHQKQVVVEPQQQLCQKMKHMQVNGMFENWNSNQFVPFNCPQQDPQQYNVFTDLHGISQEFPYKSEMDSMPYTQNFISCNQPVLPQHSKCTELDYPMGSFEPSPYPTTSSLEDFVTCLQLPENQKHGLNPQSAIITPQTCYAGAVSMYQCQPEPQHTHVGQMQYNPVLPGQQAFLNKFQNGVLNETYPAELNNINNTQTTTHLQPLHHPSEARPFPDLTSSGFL

[7] = molecular target: nuclear MEF2/HDAC4/NCoR1 (Homo sapiens, UniProt P56524); assay: Nuclear NCoR1 immunoprecipitated with MEF-2 in CWR-22Rv1 cells under hypoxia; assay type: cell-based; settings: discussion summary
[8] = tested on: liver Cyp1a1; assay: Liver Cyp1a1 induction in mice; assay type: in vivo
[9] = tested on: 68 kinases; assay: Targeted kinase screen; assay type: biochemical; settings: 10 μM
[10] = molecular target: human AHR (Homo sapiens, UniProt P35869); assay: Photo-affinity label; settings: competitive PAL AHR binding assay
[11] = cited from earlier work
[12] = molecular target: immobilized fl-HDAC4 (Homo sapiens, UniProt P56524); assay: SPR: compound in solution binding to immobilized fl-HDAC4; settings: at >30 μM in solution, Zn2+ present
[13] = molecular target: fl-HDAC4 (Homo sapiens, UniProt P56524); assay: HDAC4 enzymatic assay with Lys; assay type: biochemical; settings: Lys(TFA)-AMC substrate
[14] = cited from earlier work; remark: listed apart in the source
[15] = tested on: HIF-1α protein; settings: daily oral 10 mg/kg/d; cited from earlier work
[16] = tested on: prostate cancer xenografts; settings: cited from earlier work
[17] = tested on: CWR22-RH PDXs; assay: RNA sequencing of in vivo growing CWR22-RH PDX; set-up: species or system human xenograft in mice; settings: oral 10 mg/kg/d vs vehicle, castrate hosts
[18] = molecular target: fl-wild-type HDAC4 (Homo sapiens, UniProt P56524); assay: SPR competition: TasQ in solution vs immobilized TasQ for fl-wild-type HDAC4; assay type: binding
[19] = tested on: LNCaP cells; assay: In vitro growth of LNCaP parental vs HDAC4 KD cells, normoxia vs hypoxia; assay type: cell-based, human; settings: TasQ 10 μM
[20] = tested on: human umbilical vein endothelial cells (HUVECs); assay: Three dimensional; assay type: cell-based; settings: CM-supplemented 3D cultures, 10 μM
[21] = molecular target: fl-R681A/R798A double mutant HDAC4 protein (Homo sapiens, UniProt P56524, R681A/R798A); assay: SPR competition: TasQ in solution vs immobilized TasQ for mutant HDAC4; assay type: binding
[22] = tested on: metastatic castration-resistant prostate cancer (mCRPC); settings: cited from earlier work
[23] = tested on: CWR-22Rv1 xenografts; assay type: in vivo, human xenograft in mice; settings: oral 10 mg/kg/d
[24] = tested on: prostate cancer xenografts; settings: oral 10 mg/kg/d, cited from earlier work
[25] = molecular target: fl-NCoR1 protein (Homo sapiens, UniProt O75376); assay: SPR: TasQ in solution binding to immobilized fl-NCoR1
[26] = phase 1B, TasQ combined with cabazitaxel, RECIST

Chain of fl-HDAC4 (P56524 whole entry): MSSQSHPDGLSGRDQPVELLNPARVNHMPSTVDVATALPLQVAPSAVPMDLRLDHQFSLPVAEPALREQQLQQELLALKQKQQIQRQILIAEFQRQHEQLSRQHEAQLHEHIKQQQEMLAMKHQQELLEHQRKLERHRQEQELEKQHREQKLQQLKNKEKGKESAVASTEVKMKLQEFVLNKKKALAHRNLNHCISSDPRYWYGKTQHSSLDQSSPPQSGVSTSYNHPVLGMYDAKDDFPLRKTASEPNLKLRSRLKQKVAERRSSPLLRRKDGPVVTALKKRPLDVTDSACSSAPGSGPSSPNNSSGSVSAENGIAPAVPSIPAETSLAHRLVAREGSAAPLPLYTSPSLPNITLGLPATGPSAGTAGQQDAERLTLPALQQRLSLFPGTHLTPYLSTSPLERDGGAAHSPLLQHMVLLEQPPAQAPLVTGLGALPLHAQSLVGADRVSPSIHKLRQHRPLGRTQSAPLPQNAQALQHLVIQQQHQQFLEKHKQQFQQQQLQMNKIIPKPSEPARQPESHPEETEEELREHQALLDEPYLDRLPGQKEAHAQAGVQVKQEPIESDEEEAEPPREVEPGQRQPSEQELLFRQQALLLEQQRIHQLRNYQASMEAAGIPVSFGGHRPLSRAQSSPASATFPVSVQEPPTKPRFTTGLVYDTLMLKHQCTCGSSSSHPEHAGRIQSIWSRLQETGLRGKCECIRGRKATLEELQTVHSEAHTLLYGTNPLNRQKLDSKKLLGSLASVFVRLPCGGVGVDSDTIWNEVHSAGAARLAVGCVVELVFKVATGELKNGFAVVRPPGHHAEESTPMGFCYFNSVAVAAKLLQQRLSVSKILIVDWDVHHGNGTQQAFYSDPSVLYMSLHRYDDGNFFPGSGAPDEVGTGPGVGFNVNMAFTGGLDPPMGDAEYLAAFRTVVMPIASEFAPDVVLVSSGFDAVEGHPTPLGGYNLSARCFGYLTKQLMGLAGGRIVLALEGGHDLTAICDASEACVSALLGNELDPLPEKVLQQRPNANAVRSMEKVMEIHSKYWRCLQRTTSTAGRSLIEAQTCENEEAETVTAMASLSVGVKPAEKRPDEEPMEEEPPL
Chain of fl-R681A/R798A double mutant HDAC4 protein (P56524 whole entry R681A/R798A): as the sequence (P56524 whole entry) above, with R681A, R798A counted along it
Chain of fl-wild-type HDAC4 (P56524 whole entry): as the sequence (P56524 whole entry) above
Chain of nuclear MEF2/HDAC4/NCoR1 (P56524 whole entry): as above
Chain of immobilized fl-HDAC4 (P56524 whole entry): as above
Chain of fl-NCoR1 protein (O75376 whole entry): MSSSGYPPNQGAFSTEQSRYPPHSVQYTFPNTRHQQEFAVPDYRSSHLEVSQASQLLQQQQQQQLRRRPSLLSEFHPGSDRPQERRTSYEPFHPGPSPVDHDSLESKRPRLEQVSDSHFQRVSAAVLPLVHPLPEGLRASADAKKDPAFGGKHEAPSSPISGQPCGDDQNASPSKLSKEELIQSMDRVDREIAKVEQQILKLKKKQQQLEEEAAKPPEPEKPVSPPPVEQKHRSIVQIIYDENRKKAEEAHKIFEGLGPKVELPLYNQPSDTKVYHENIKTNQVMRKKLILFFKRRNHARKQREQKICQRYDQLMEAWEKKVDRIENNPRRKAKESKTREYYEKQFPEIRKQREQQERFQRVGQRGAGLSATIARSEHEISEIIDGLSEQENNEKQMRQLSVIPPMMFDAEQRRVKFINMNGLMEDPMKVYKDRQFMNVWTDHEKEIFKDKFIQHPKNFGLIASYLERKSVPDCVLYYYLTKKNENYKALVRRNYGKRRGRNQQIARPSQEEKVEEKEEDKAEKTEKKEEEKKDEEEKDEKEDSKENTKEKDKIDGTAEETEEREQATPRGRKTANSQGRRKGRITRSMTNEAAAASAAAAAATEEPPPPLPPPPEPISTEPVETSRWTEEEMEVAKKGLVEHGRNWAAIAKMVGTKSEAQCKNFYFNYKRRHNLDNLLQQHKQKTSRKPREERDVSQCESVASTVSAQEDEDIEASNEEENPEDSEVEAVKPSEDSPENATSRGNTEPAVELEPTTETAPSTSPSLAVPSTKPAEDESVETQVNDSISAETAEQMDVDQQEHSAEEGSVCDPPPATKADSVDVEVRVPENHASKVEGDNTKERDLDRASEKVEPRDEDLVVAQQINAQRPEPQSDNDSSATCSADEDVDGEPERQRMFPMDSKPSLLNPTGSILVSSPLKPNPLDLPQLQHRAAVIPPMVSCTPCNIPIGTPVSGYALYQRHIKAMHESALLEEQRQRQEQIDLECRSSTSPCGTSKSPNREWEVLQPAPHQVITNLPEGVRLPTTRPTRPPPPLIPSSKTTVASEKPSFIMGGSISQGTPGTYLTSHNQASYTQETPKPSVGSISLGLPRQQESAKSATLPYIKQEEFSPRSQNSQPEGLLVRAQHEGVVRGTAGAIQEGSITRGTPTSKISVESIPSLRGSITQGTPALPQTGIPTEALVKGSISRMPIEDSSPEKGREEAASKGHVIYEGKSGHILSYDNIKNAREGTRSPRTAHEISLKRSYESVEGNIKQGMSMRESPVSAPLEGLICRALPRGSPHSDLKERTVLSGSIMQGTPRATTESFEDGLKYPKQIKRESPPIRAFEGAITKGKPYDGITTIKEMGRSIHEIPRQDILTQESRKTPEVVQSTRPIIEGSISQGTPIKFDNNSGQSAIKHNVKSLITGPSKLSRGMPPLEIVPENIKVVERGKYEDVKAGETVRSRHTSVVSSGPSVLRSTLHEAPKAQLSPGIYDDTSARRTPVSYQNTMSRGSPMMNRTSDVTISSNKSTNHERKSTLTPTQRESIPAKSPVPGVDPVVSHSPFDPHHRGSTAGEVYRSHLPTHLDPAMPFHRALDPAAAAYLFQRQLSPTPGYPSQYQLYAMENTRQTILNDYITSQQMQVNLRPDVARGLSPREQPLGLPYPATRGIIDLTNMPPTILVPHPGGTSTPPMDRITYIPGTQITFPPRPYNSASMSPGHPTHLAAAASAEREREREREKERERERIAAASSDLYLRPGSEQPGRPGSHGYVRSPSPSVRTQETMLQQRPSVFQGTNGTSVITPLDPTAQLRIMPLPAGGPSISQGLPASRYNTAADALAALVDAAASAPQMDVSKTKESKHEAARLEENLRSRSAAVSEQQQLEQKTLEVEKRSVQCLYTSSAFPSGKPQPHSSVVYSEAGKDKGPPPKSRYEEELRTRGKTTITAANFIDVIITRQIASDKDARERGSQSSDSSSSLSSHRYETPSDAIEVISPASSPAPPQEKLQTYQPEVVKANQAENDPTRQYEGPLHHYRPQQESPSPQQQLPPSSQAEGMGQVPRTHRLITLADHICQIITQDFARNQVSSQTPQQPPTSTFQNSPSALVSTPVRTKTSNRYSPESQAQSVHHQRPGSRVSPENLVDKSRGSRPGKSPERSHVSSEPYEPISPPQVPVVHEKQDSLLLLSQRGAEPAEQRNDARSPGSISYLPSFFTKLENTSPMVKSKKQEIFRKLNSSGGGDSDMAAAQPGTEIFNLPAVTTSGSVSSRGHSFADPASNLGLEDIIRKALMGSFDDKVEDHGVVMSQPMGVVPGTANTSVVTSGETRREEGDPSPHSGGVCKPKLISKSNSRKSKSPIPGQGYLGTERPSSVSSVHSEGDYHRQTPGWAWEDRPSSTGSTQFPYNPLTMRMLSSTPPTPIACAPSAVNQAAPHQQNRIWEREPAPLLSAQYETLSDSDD

## c1ccc2c(c1)cc1ccc3cccc4ccc2c1c34 [B(a)P, benzo[a]pyrene]
[1]
  therapeutic efficacy: completely lacks therapeutic efficacy
[2]
  thymus weight: 27 ± 8 mg

## COC(=O)c1c(O)c2c(OC)cccc2n(C)c1=O [ESATA-2]
[3]; oral 10 mg/kg/d over 3 weeks, castrate NSG mice
  growth inhibitor (GI) activity: no GI activity

## COc1cccc2c1c(O)c(C(=O)N(c1ccc(C(F)(F)F)cc1)C1CCCCC1)c(=O)n2C [ESATA-20]
[4]; 10 mg/kg oral, DMSO/HPCD vehicle
  fold lower bioavailability than TasQ: 5.5 fold
[4]; mouse, in vivo
  alpha half-life for tissue distribution: 3 h
  beta half-life for serum elimination: 10 to 12 h
  drug bound to serum proteins: > 98%
[5]
  water solubility: less water soluble than TasQ
[3]; 10 mg/kg/d oral
  anti-cancer efficacy: same significant maximal anti-cancer efficacy as TasQ
[3]; in vivo
  serum concentration at which maximal anti-prostate cancer efficacy is produced: < 2 µM
[6]; cell-based AHR-promoter assay
  fold lower AHR agonism than TasQ: 10 fold and ~ 10 fold
[6]; read-out: AHR agonist EC50, human cell-based luciferase reporter
  EC50: 10000 nM
[7]
  fold more potent HDAC4 inhibitor (vs TasQ): ≥ 5 fold
[2]; oral, even at 30 mg/kg/d
  thymus regression: lack of induction
[8]; oral, even at 30 mg/kg/d
  induction of liver Cyp1a1: lack of induction
[9]
  change in activity in any of the 68 kinases: < 15%
[10]
  fold lower binding affinity than TasQ: 10 fold

## CN(C(=O)c1c(O)c2ccccc2n(C)c1=O)c1ccccc1 [Linomide, 4-hydroxy-N,1-dimethyl-2-oxo-N-phenyl-1,2-dihydroquinoline-3-carboxamide]
[11]; chronic doses of ≤0.1 mg/kg
  side effects in phase III trials: several cases of pericarditis and neuropathy
[12]
  share of immobilized fl-HDAC4 protein bound: 10–15%

## O=C(c1ccc(C(=O)C(F)(F)F)s1)N1CCn2c(-c3ccccc3)cnc2C1 [TFT-PIP]
[13]
  effect on enzymatic activity: inhibited

## COc1cccc2c1c(O)c(C(=O)N(C)c1ccc(C(F)(F)F)cc1)c(=O)n2C [TasQ, 4-hydroxy-5-methoxy-N,1-dimethyl-2-oxo-N-[(4-trifluoromethyl)phenyl]-1,2-dihydroquinoline-3-caboxamide]
[11]; 0.5 mg/d
  plasma concentration maintained: 230 ± 30 nM
[11]; 1 mg/day
  steady-state plasma level: 0.42 ± 0.05 µM
[11]; phase 1B
  MTD when combined with cabazitaxel and prednisone: 0.5 mg/day
[11]; phase I, oral, after dose escalation over 4–6 weeks
  maximum tolerated dose (MTD): 1 mg/day
[11]; phase I
  dose-limiting toxicity: sinus tachycardia and asymptomatic elevation in amylase
[3]; castrate NSG mice, 3-week treatment
  oral daily dose giving maximal significant growth inhibition: ≥ 5 mg/kg/day
[1]; alone or in combination with B(a)P
  inhibition of growth at end of study (fraction): ~ 2/3
[14]; oral 5 mg/kg/d, at 24 hrs
  serum nadir: 1.08 ± 0.21 µM
[14]; oral 10 mg/kg/d
  blood concentration maintained: > 1000 nM
[6]
  EC50: 1000 nM
[15]
  lowering of HIF-1α protein in tumors: > 50%
[16]; based on serum drug level
  fold more potent compared to Linomide: ≥ 100 fold
[16]
  daily oral dosing required in mice: > 5 mg/kg/day
  fold increase in anti-tumor efficacy compared to Linomide: > 25 fold
[16]; preclinical
  daily oral dosing required for maximal therapeutic activity: ≥ 5 mg/kg
  serum concentration to be maintained for maximal therapeutic activity: > 2 µM
[17]
  AGR2, AHR Target Genes (Fold Increases by TasQ): 5.5 fold
  AHR, AHR Target Genes (Fold Increases by TasQ): 3.0 fold
  ALDOC, HIF-1a Target Genes (Fold Decrease by TasQ): −1.4 fold
  AR, AR Target Genes (Fold Decrease by TasQ): −2.0 fold
  BNIP3, HIF-1a Target Genes (Fold Decrease by TasQ): −1.9 fold
  CDC6, Proliferation Target Genes (Fold Decrease by TasQ): −1.5 fold
  CDT1, Proliferation Target Genes (Fold Decrease by TasQ): −2.2 fold
  CYP1B1, AHR Target Genes (Fold Increases by TasQ): 10.0 fold
  DTYMK, Proliferation Target Genes (Fold Decrease by TasQ): −1.6 fold
  E2F1, Proliferation Target Genes (Fold Decrease by TasQ): −2.0 fold
  GDF15, AHR Target Genes (Fold Increases by TasQ): 2.3 fold
  HILPDA, HIF-1a Target Genes (Fold Decrease by TasQ): −1.7 fold
  IGF1, HIF-1a Target Genes (Fold Decrease by TasQ): −11.0 fold
  IGFBP2, HIF-1a Target Genes (Fold Decrease by TasQ): −1.8 fold
  IGFBP5, HIF-1a Target Genes (Fold Decrease by TasQ): −18.0 fold
  KLKP1, AR Target Genes (Fold Decrease by TasQ): −2.3 fold
  LDHA, HIF-1a Target Genes (Fold Decrease by TasQ): −1.5 fold
  LOX, HIF-1a Target Genes (Fold Decrease by TasQ): −4.0 fold
  MCM2, Proliferation Target Genes (Fold Decrease by TasQ): −1.9 fold
  MCM3, Proliferation Target Genes (Fold Decrease by TasQ): −1.6 fold
  MCM5, Proliferation Target Genes (Fold Decrease by TasQ): −2.0 fold
  MKI67, Proliferation Target Genes (Fold Decrease by TasQ): −1.7 fold
  NKX3.1, AR Target Genes (Fold Decrease by TasQ): −2.3 fold
  NQOI, AHR Target Genes (Fold Increases by TasQ): 2.9 fold
  P4HA1, HIF-1a Target Genes (Fold Decrease by TasQ): −1.8 fold
  PDK1, HIF-1a Target Genes (Fold Decrease by TasQ): −1.7 fold
  PTN, HIF-1a Target Genes (Fold Decrease by TasQ): −6.1 fold
  SLC45A3, AR Target Genes (Fold Decrease by TasQ): −3.7 fold
  TIPARP, AHR Target Genes (Fold Increases by TasQ): 3.4 fold
  TMPRSS2, AR Target Genes (Fold Decrease by TasQ): −1.9 fold
  TNC, HIF-1a Target Genes (Fold Decrease by TasQ): −2.5 fold
  TTR, HIF-1a Target Genes (Fold Decrease by TasQ): −3.8 fold
  VEGFB, HIF-1a Target Genes (Fold Decrease by TasQ): −1.5 fold
[17]; section title: upregulation
  BHLHE41, MEF-2 Target Genes (Fold Decrease by TasQ): 2.9 fold
  CA12, MEF-2 Target Genes (Fold Decrease by TasQ): 2.7 fold
  CAPN2, MEF-2 Target Genes (Fold Decrease by TasQ): 1.6 fold
  CEACAM1, MEF-2 Target Genes (Fold Decrease by TasQ): 1.8 fold
  EDN1, MEF-2 Target Genes (Fold Decrease by TasQ): 15.0 fold
  NR4A1, MEF-2 Target Genes (Fold Decrease by TasQ): 1.4 fold
  NR4A2, MEF-2 Target Genes (Fold Decrease by TasQ): 1.8 fold
  S100P, MEF-2 Target Genes (Fold Decrease by TasQ): 5.7 fold
  THB5, MEF-2 Target Genes (Fold Decrease by TasQ): 8.0 fold
[18]
  EC50: 1000 nM
[19]
  effect on cells: the cells die
[2]
  thymus weight: 41.6 ± 6 mg
[20]
  sprouting: sprouting prevented
[21]
  displacement of mutant HDAC4 from immobilized TasQ: not competitively displaced
[8]; oral 10 mg/kg, alone and in combination with B(a)P
  induction of liver Cyp1a1: > 50 fold
[22]; [26]
  patients with complete or partial response (CR/PR): 12%
  patients with stable disease: 48%
[22]; phase III, 1 mg/day
  overall survival (OS): not significantly enhanced
[22]; phase III, daily oral
  reduction of risk of radiographic progression or death vs. placebo: 36%
[22]; randomized phase II, mCRPC progressing on ADT
  improvement of median progression-free survival (PFS): 4.3 months
[23]; dominant-positive mutant HIF-1α tumors
  growth inhibition: < 25%
[23]; wild type cells
  growth inhibition: > 80%
[13]
  effect on enzymatic activity: did not inhibit
[24]; lowered from >3 mmHg
  pO2 in the TME: 1.4 +/− 1.0 mmHg
[24]
  enhancement of hypoxia: > 2 fold
[25]
  binding to immobilized fl-NCoR1: no detectable binding
